Experimental findings from a melting point compilation (Tetko et al.; mined from patent text by program, amines drawn as free bases though some values may be those of a salt) are described below.

As usually defined, the melting point is the temperature, or range, at which the solid turns liquid.

Some results are limits rather than exact numbers.

In turn, `Cc1cc2c(cc1Cl)C(c1ccccc1Cl)C(=O)N2` (stereo not given) registered a melting point of 203 to 209 °C. In the case of `Cc1nn(-c2cc(O)c(Cl)cc2F)c(C)c1C` it was 158 to 160 °C; in that of `COc1ccc([C@@H]2[C@@H](CCCBr)C(=O)N2c2ccc(OC)cc2)cc1`, 70 to 73 °C; in that of `CC(C)(C)c1ccc(CCC(C=O)CC2CCCCC2)cc1NC(=O)CC1c2ccccc2Oc2ccccc21` (stereo not given), 117 to 118 °C. With `Nc1sc2c(c1C(=O)c1ccc3ccccc3c1)CCN(Cc1ccccc1F)C2`, the melting point was in the range of 183 to 185 °C. In the case of `CCCCCCCCCCCCSc1n[nH]c(-c2ccc(C(C)(C)C)cc2)n1` it was 87 to 92 °C; in that of `c1cnc2c(c1)NCc1cccn1C2`, 171 to 172 °C. In the case of `COc1cc(OC)cc(N2CCN(C(=O)N(C)c3nc(C)c(C)nc3OC)CC2)c1` it was 80 to 82 °C; in that of `OCc1nc2ccc(OC(F)(F)F)cc2[nH]1`, 192 to 194 °C. In the case of `Cc1nn(-c2c(Cl)cc(C(F)(F)F)cc2Cl)nc1SC#N` it was 115 to 117 °C.

In turn, `CN(C)C(=O)c1cc2ccc3c(c2cc1Cn1cncn1)C(C)(C)C(=O)O3` yielded a melting point of 172 to 173 °C. With `CC(Cc1ccc(O)cc1)NCC(O)c1cccc(Cl)c1` (stereo not given), the melting point was 50 to 55 °C. In the case of `OC1(C2CCNCC2)CC(c2ccc(F)cc2)c2ccc(F)cc21` (stereo not given) it was 198 °C. In the case of `CC(C)S(=O)(=O)Nc1ccc2c(=O)c3c(sc2c1)CC(C)(C)CC3` it was 263 °C; in that of `COc1ccc(-c2cc3nccnc3[nH]2)cc1OCC(=O)O`, 330 to 332 °C. With `Cc1cc2c([C@@H]3C[C@H]3CNC(=O)c3ccccc3)cccn2n1` (relative stereo), the melting point fell in the range of 112 to 113 °C. For the compound `CCCCOC1C=CC(=O)N1S(=O)(=O)c1cccs1` (stereo not given), the melting point was 56 to 57 °C. Turning to `Cn1cc(C2=C(c3cn(CCCNS(C)(=O)=O)c4ccccc34)C(=O)NC2=O)c2ccccc21`, the melting point fell in the range of 135 to 138 °C. In the case of `CS(=O)(=O)Nc1cc(N)ccc1Oc1ccccc1` it was 112 to 114 °C. In the case of `CC(C)c1ccc([N+](=O)[O-])c(C(C)C)c1NC(=O)CN1CCN(CCSc2nc3cccc([N+](=O)[O-])c3o2)CC1` it was 70 to 72 °C.

With `COCCOc1ccccc1-c1cc2[nH]c3ccc(O)cc3c2c2c1C(=O)NC2=O`, the melting point lay within 275 to 279 °C. `CN1C(=O)NC(Cc2c[nH]c3ccccc23)C1CCc1cc(C(F)(F)F)cc(C(F)(F)F)c1` (stereo not given) yielded a melting point of 191 °C.

`CC(C)c1nn2ccccc2c1C(O)C(C)C` (stereo not given) yielded a melting point of 69 °C. The compound `COc1ccc([PH](=O)c2ccc(OC)cc2)cc1` displayed a melting point of 126 °C. In the case of `Cn1cc(S(C)=O)c(=O)c2sc(-c3ccccc3Cl)cc21` (stereo not given) it was 167 to 169 °C; in that of `O=C(O)C(=O)c1ccc(OCOc2ccccc2)cc1`, 72 to 74 °C. In the case of `CNS(=O)(=O)OCCOc1ccc(Cl)cc1` it was 101 to 104 °C. In the case of `CCOC(=O)C(=O)Nc1cc(NC(C)=O)ccc1O` it was more than 300 °C. On to `COc1cc2c(Nc3cc(OC)c(OC)c(OC)c3)c(C#N)cnc2cc1/C=C/CCO`, for which the melting point lay in the range of 184 to 185 °C. `O=C(NC1CCC(CCN2CCC(c3cccc4c3CCO4)CC2)CC1)C1CC1(F)F` (stereo not given) had a melting point of 199 °C. In the case of `CCc1cc2c(C3=NNC(=O)CC3C)cc(Cl)cn2n1` (stereo not given) it was 172 to 174 °C. In the case of `Nc1ccc(CS(=O)(=O)NCc2ccccc2)cc1` it was 117 to 118 °C; in that of `COc1cccc2c1CCCC2CN=[N+]=[N-]` (stereo not given), 65 to 66 °C; in that of `O=C(OCCOc1ccc(OCCO)cc1)c1ccc(O)c(Cl)c1`, 87 to 88 °C. In the case of `COc1cc2c(cc1OC)C(C(CO)CO)N(C(=O)c1ccccc1)CC2` (stereo not given), the melting point lay in the range of 161 to 163 °C. In the case of `COc1ccc(C(C)=O)c2cccc(S(=O)(=O)N(C)C)c12` it was 124 to 127 °C; in that of `CC(C)(C)c1cc(C(C)(CCC(=O)O)c2ccc(O)c(C(C)(C)C)c2)ccc1O`, 155 °C; in that of `COc1ccc(Cl)c(CBr)c1`, 51 to 52 °C. For the compound `O=C(Nc1ccc(CN2CCCCC2)cc1)C1=Cc2cc(-c3ccc(F)cc3)ccc2CC1`, the melting point is 175 to 176 °C. In the case of `CS(=O)(=O)c1ccc(-c2sc(-c3ccc(Br)s3)nc2-c2ccc(F)cc2)cc1` it was 190 to 191 °C. In the case of `O=Cc1ccc(CN2C(=O)c3ccccc3C2=O)c(Cl)c1` it was 123 to 126 °C; in that of `Cc1nc(-c2ccc(N)c(Br)c2)c[nH]1`, 34 to 36 °C. In the case of `CC(C)OC(=O)Cc1nc(-c2ccccc2)oc1-c1ccsc1` it was 62 to 63 °C; in that of `CCC(=O)Nc1ccnn1-c1ncc(Cl)cc1Cl`, 116 to 124 °C; in that of `Cc1c(C(=O)N(C)Cc2ccc3c(Br)c(OCC#N)ccc3c2)oc2ccccc12`, 35 to 38 °C.

Turning to `CCn1ncc2c1ncc1c(Nc3cccc(C(F)(F)F)c3)nc3cc(C)nn3c12`, the melting point lay in the range of 205 to 206 °C. The compound `Cc1cccc(C)c1N1CCN(CCNc2cnn(C)c(=O)c2Cl)CC1` registered a melting point of 235 to 242 °C. In the case of `O=C(C#Cc1ccc(C(F)(F)F)cc1Cl)Nc1ccc(OCCn2cccn2)cc1` it was 120 to 125 °C. As for `NS(=O)(=O)c1ccc(-c2noc(-c3cnn4c(C5CC5)cc(-c5ccc(Cl)cc5)nc34)n2)s1`, the melting point is 294 °C.

As to `CC(C)CN1C(=O)c2cnc(-c3ccccc3)nc2N(C(=O)CCl)c2ccccc21`, the melting point lay in the range of 95 to 96 °C. In the case of `COC(=O)Nc1nccc(Oc2ccc3c(C(=O)Nc4cccc(C(F)(F)F)c4)cccc3c2)n1` it was 199 to 200 °C; in that of `CS(=O)(=O)Nc1ccc(/C=C\COCCCCCCNCC(O)c2ccc(O)c(CO)c2)cc1` (stereo not given), 113 to 116 °C; in that of `COc1cc(CSc2ccc(O)cc2)cc(O)c1O`, 140 °C. As to `O=S(=O)(CCl)N(Cc1cccnc1)c1ccc(Cl)cc1`, the melting point was 98 to 100 °C. With `CC(C)c1onc(-c2c(Cl)cccc2Cl)c1COc1ccc(N(C)Cc2ccc(C(=O)O)cc2)c(C(F)(F)F)n1`, the melting point is 96.1 to 97.1 °C.

In turn, `Cc1cccc(-c2nc3cccnn3c2-c2ccnc(NC3CCCCC3)c2)c1` returned a melting point of 169 to 170 °C. In the case of `COc1cc(C=Cc2nc3c(s2)NCCCC3)ccc1O` it was 175 to 178 °C. In the case of `Cc1ccc2c(c1)c(-c1ccc(F)cc1)cn2N` it was 116 to 120 °C. As to `CN(C)C1Cc2cccc3ccn(c23)C1` (stereo not given), the melting point fell in the range of 114 to 115 °C. In the case of `COc1ccc2oc3ccc([N+](=O)[O-])cc3c2c1C(=O)Nc1ccncc1` it was 222 °C; in that of `CCOC(=O)N(CC(=O)O)C(=O)c1c(Cl)ccc2c(C(F)(F)F)c(OC)ccc12`, 144 to 146 °C.

The compound `CCSCc1c(S(C)(=O)=O)ccc(C(=O)O)c1Cl` came in with a melting point of 172 to 174 °C. In the case of `O=C1NC(=O)c2c1c(O)nc1cc(Cl)c(Cl)cc21`, the melting point is more than 350 °C.

As for `CCOc1ccc(C2=NNC(=O)[C@H]3CCCC[C@@H]23)cc1OCC` (relative stereo), the melting point was in the range of 156 to 157 °C. In the case of `COC(=O)c1cc(Cl)c(Cl)cc1C#N` it was 120 to 123 °C. `CSc1nc(N)n(-c2ccccc2Oc2ccc(C)cc2O)n1`: the melting point was in the range of 41 to 42 °C. For the compound `Cc1cc(=O)c2ccc(OCCCN3CCC(NC(=O)Cc4ccccc4)CC3)cc2o1`, the melting point lay within 172 to 173 °C. Consider `CCOC(=O)N1C=CC(c2c(-c3cccs3)nc3ccc(N4CCN(C(=O)OC(C)(C)C)CC4)nn23)C=C1`, for which the melting point was 155 °C. In the case of `Cc1ccc(Oc2ccccc2C#N)c(O)c1` it was 118 to 119 °C; in that of `C=CC(=O)N1C(C)(C)CC(=C2CC(C)(C)N(C(=O)C=C)C(C)(C)C2)CC1(C)C`, 196 to 198 °C; in that of `O=c1[nH]c2cc([N+](=O)[O-])c(S(=O)(=O)N(CCO)CCO)cc2[nH]c1=O`, 310 to 321 °C.

Consider `CCOC(=O)c1cn(C)c2c(=O)c3ccccc3oc2c1=O`, for which the melting point was 251 to 254 °C. In the case of `O=C(c1ccccn1)c1cc2ccncc2[nH]1` it was 219 to 222 °C; in that of `CSc1nc(CO)c(CO)n1C`, 119 to 120 °C.

Take `O=C(Cl)c1cn(CCCCl)c(=O)c2ccccc12`: the melting point was 101 °C. Take `O=C1CCCCC1c1ccccc1F` (stereo not given): the melting point was 47 to 49 °C. In the case of `O=C1Nc2ccc(C(c3ccc(Cl)cc3)n3ccnc3)cc2C(c2cccc(Cl)c2)N1` (stereo not given) it was 177 °C; in that of `CCOC(=O)c1nn(-c2ccccc2Cl)c(=O)c(C#N)c1C`, 93 to 95 °C; in that of `COc1cc(-c2nc(C)c(C(=O)NN)s2)cc(OC)c1OC`, 180 to 181 °C. With `CC(C)(C)C(=O)c1c[nH]c2ncc(-c3cccc(NC4CCCC4O)c3)nc12` (stereo not given), the melting point is 178 to 180 °C. Take `CC(=O)NCC(=O)N1CC(=O)NC1(C)C`: the melting point lay within 214 to 215 °C.

Compound `CCC(CC)C(NS(=O)(=O)c1ccc(C#N)cc1)c1ccnn1-c1ccccc1` (stereo not given) showed a melting point of 135 to 137 °C.

`N#Cc1ccc(Oc2ccc(-c3ccc(Oc4ccc(C#N)c(C#N)c4)cc3)cc2)cc1C#N` had a melting point of 230 to 232 °C. In the case of `O=C(Nc1cn(C2CCCCO2)nc1C(=O)NCCNc1ccccn1)c1ccccn1` (stereo not given) it was 178 to 180 °C. In the case of `COc1ccc2cc(-c3ccc(S(C)=O)cc3)ccc2n1` (stereo not given) it was 164 to 166 °C; in that of `Nc1cccc2c1N1CCN=C1S2`, 229 °C; in that of `CC(C)=C(C(=O)O)c1cc(C(C)C)c(O)c2c(Cc3ccccc3)cccc12`, 264 to 266 °C. In the case of `CC1(C)Oc2ccc(C#N)cc2C(n2ccccc2=O)C1O` (stereo not given) it was 243 °C. As for `CCCCCCCCN1C(=O)c2c(Br)sc(Br)c2C1=O`, the melting point was 104 °C.

Turning to `CCC(O)(c1ccc(OCCN(C(C)C)C(C)C)cc1)c1ccccc1OC` (stereo not given), the melting point fell in the range of 46 to 47 °C.
